Results on six compounds are retold here after patent US11160794B2, “Methods for treating congenital disorders of glycosylation” (Maggie's Pearl, LLC, priority 2018, dated 2021).

Assay [1] has as its system Pmm-2 F119L homozygous animals. The assay can be described thus: Chemical stressor exposure of Pmm-2 mutant worms in liquid culture. The class given is in vivo, nematode (worms). To be noted: increasing concentrations. An excerpt:
Because an underlying defect in glycosylation may be manifested when subjected to external chemical stressors, Pmm-2 F119L homozygous animals were subjected to Tunicamycin and Bortezomib drug exposures. Tunicamycin is an inhibitor of N-linked glycosylation and Bortezomib (Bzb) is an irreversible inhibitor of the proteasome. It was contemplated that either or both drugs would affect the Pmm-2 mutants differently compared to wild type (“WT”).

The test system of another assay is PMM2. Briefly: PMM2 enzymatic assay on lysates of compound-treated fibroblasts. The class given is cell-based, human. To be noted: for effect on PMM2 enzymatic activity: human fibroblasts GM20942 (F119L/R148H as printed), 10 and 15 μM, 24 and 48 hours; for PMM2 enzyme activity: above described cell models. As to the method: Cells (WT and PMM2 (GM20942-R141H/F119L) compound heterozygous fibroblasts) were seeded at 45 cells/μL (48 hours) and 60 cells/μL (24 hours) in 96 well plates. Compounds were added while seeding cells. The cells were incubated with the tested compounds for 24 and 48 hours (2 different plates, at 10 and 15 μM). Cells were washed twice with phosphate buffer solution. Cell extracts were prepared by adding 10 μL homogenization buffer (20 mM Hepes, 25 mM KCl, 1 mM dithiothreitol, 10 μg/mL each leupeptin and antipain) into each well. The plate was frozen at −80° C. and thawed (this step was repeated two times). Contents of the well were then transferred to the next well, frozen, and thawed. The previous two steps were repeated again to obtain 3× protein. The plate was centrifuged at 4000 rpm for 10 min. 1 μL of sample was taken for Qubit protein quantification, and assay buffer was added into these wells. The plate was incubated at 37° C., and readings were taken every 30 mins.
PMM2 enzymatic activities were assayed spectrophotometrically at 340 nm by the reduction of NADP+ to NADPH in a reaction mixture incubated at 30° C. for 60 mins in a 96-well plate. Cell lysates were added to 200 μL volume in the following reaction: 50 mM HEPES, pH 7.1, 5 mM MgCl2, 0.5 mM NADP+, 10 μg/mL yeast glucose-6-phosphate dehydrogenase, 20 μM glucose 1,6-bisphosphate, 200 μM mannose 1-phosphate, 10 μg/mL phosphoglucose isomerase, and […]. Glucose 1,6-bisphosphate was used as an activator of PMM2 activity. NADPH formation was calculated from absorbance at 340 nm using the Beer's Law (absorbance=εLc).
A PMM2 enzymatic assay was performed to determine whether the expression level of the variants correlate with the enzymatic activity in the cell. To do this, phosphomannose mutase (PMM) activity was assayed by measuring the reduction of NADP+ to NADPH spectrophotometrically at 340 nm with a plate reader according to methods known in the art. This is achieved by a series of four reactions shown in Scheme 1.
Mannose-1-phosphate and NADP are provided as substrates for the reactions along with phosphomannose isomerase, phosphoglucose isomerase, glucose-6-phosphoate dehydrogenase, and PMM2 from the protein lysate. Additionally, glucose 1,6-bisphosphate is used as an activator of PMM2 activity.
To determine whether these compounds rescue growth by increasing PMM2 enzymatic activity, human fibroblast cells (GM20942) containing the F119L/R148H heterozygous mutations and wild type fibroblast cells were treated with each compound. The cell lysates were subjected to the PMM2 enzymatic reaction.

Assay [2] has as its system SEC53 variant (pmm2 mutant) yeast. Briefly: Yeast growth rescue of SEC53 variant strains (validation of drug screen hits). To be noted: for growth rescue/improvement: maximum dose/effect. The class given is cell-based. On the procedure:
All strains used herein are in S288c background. Strains were grown in Synthetic Complete (“SC”) or SC drop out media (Sunrise)+2% dextrose at 30° C. unless otherwise noted. Standard genetic procedures of transformation and tetrad analysis were followed to construct strains. SEC53 rescue plasmid (pPL1) was generated by cloning the SEC53 promoter, open reading frame, and terminator sequences into the episomal pRS316 containing the URA3 selectable marker. SEC53 variants were generated by cloning the relevant promoter, GFP or SEC53 gene, and CYC1 terminator sequences into an integrating plasmid containing the LEU2 selectable marker and integrated at the SwaI restriction site into the HO locus. For PMM2 variants, the SEC53 ORF was replaced with a codon-optimized PMM2. Plasmids were generated by Next Interactions or GenScript. Strains were generated by Next Interactions or well-known techniques.
Cells from plates were resuspended in SC media to OD600=1.0, then serial diluted into 50 μL SC+FOA media in 384-well plates at 10^−1, 10^−2, and 10^−3. Plates were incubated at 30° C. and absorbance reading at […] were measured by a plate reader (Molecular Devices SpectraMax M3) at the indicated time points. Plates were vortexed briefly to resuspend cells prior to plate readings. 5-floroortic acid was purchased from US Biological and used at a concentration of 1 mg/L.
125 nL of compounds or DMSO were dispensed into 384-well plates using the Echo acoustic dispenser (LabCyte) to achieve a final concentration of 25 μM. 50 μL of 10^−2 dilution of an OD600=1.0 or 0.5 yeast cell suspensions were dispensed into the 384-well plates containing compounds or DMSO with a MultiFlo automated dispenser (Biotek). Plates were covered and incubated at 30° C. for 16-21 hours until OD600 reaches ˜0.8. Plates were vortexed briefly to resuspend cells prior to reading.
MicroSource Spectrum compounds were reordered from MicroSource Discovery Systems and resuspended in DMSO. 5-125 nL compounds or DMSO were dispensed into 384-well plates and 50 μL of yeast cell suspensions or media were dispensed by multichannel pipettes to achieve the desired concentration. Plates were covered and incubated at 30° C. for 16-23 hours until OD600 reaches ˜0.8. Plates were vortexed briefly to resuspend cells prior to plate readings.
pACT1-F126L, pSEC53-V238M, and pSEC53-F126L haploids and pACT1-F126L/pACT1-R148H, pSEC53-V238M/pSEC53-R148H, and pSEC53-F126L/pSEC53-R148H heterozygous diploids were advanced to a high-throughput drug screen. Screening was done in a 2,560 compound MicroSource Spectrum library collection consisting of FDA approved drugs, bioactive tool compounds, and natural products. Each strain was screened in duplicate and in 384-well plates, with each plate containing 32 wells of the negative control (no drugs) and 24 wells of the positive controls (wild type cells). […] Additionally, there is good correlation between replicates (correlation >0.4 for all panels). With a Z-score cutoff of 2.0, we initially identified six compounds that may be promising and their ability to rescue growth is conserved between the haploid and diploid strains.
These initial hits were further studied for validation. […] At the maximum dose tested, alpha-cyano-4-hydroxycinnamic acid (Compound 1) rescues the F126L allele by 17.7% in haploid and 24.5% in diploid cells.

Where [3] appears, read: pACT1-F126L/R148H heterozygous diploid cells.

Regarding `CC(C)C[C@H](NC(=O)[C@H](Cc1ccccc1)NC(=O)c1cnccn1)B(O)O` [Bzb, Bortezomib], the “growth of Pmm-2 mutants compared to wild type under drug exposure” value in assay [1] was “delayed growth”.
The same measure, in the same setting: the result for Tunicamycin reads “no major differences in growth”.
`Cc1ccc(C(=O)Nc2ccc(S(=O)(=O)O)c3cc(S(=O)(=O)O)cc(S(=O)(=O)O)c23)cc1NC(=O)c1cccc(NC(=O)Nc2cccc(C(=O)Nc3cc(C(=O)Nc4ccc(S(=O)(=O)O)c5cc(S(=O)(=O)O)cc(S(=O)(=O)O)c45)ccc3C)c2)c1` [suramin hexasodium]: the “effect on PMM2 enzymatic activity” value with PMM2 was “no discernible effect”. Further, the growth rescue/improvement is reported as 6.7% in assay [2] (pACT1-F126L haploid cells) and 22.6% in assay [2] (setting [3]). Besides, the growth improvement in assay [2] (pSEC53-F126L haploid cells) stood at 24.5%; in assay [2] (pSEC53-F126L/R148H heterozygous diploid cells), 47.4%; in assay [2] (pSEC53-V238M haploid cells), 16.1%; in assay [2] (pSEC53-V238M/R148H heterozygous diploid cells) it was 38.9%.
Consider Epalrestat [reference compound], for which the PMM2 enzyme activity result in the assay on PMM2 was “increase PMM2 enzyme activity”. Further, the “rescue of yeast growth defect” value in assay [2] (above described cell models) is on record as “rescued yeast growth defect”.
`N#C/C(=C\c1ccc(O)cc1)C(=O)O` [Compound 1, α-cyano-4-hydroxycinnamic acid]: in the assay with PMM2, the “effect on PMM2 enzymatic activity” value is listed as “rescues the enzymatic activity”. Further, the “rescue of growth of SEC53 alleles” value in assay [2] (haploid and heterozygous diploid cells, dose response) is “consistent and dose-dependent rescues”. In addition, the growth rescue/improvement in assay [2] (pACT1-F126L haploid cells) was 17.7%; in assay [2] (setting [3]), 24.5%.
For `CNc1ccccc1C(=O)N1CCc2c([nH]c3ccccc23)C1=O` [rhetsinine, Rhetsinine], the PMM2 enzyme activity entry in the assay with PMM2 is recorded as “increase PMM2 enzyme activity”.
